From the supplement of paper PMC10307832

What was measured:
Assay in all cases: relative viability (nuclei count vs DMSO), 5 days (fraction); higher = more cells survive
NCI-H2087 = test system: NCI-H2087
Method in brief: (§1)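 Dosing by pin tool came one day after lung cancer cell lines were seeded in 1536-well plates, using either one drug or a fixed anchor-drug dose plus five library-drug doses (not always all listed) in √10 steps. After 5 days, nuclei were counted on 4× images. Relative viability is treated-well nuclei count divided by vehicle-well nuclei count, and values are medians of duplicate plates.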

NCI-H358 = test system: NCI-H358
Method in brief: as §1

201T = test system: 201T
Method in brief: as §1

NCI-H1437 = test system: NCI-H1437
Method in brief: as §1

EPLC-272H = test system: EPLC-272H
Method in brief: as §1

NCI-H647 = test system: NCI-H647
Method in brief: as §1

COR-L23 = test system: COR-L23
Method in brief: as §1

HCC-15 = test system: HCC-15
Method in brief: as §1

ABC-1 = test system: ABC-1
Method in brief: as §1

NCI-H1975 = test system: NCI-H1975
Method in brief: as §1

HCC-827 = test system: HCC-827
Method in brief: as §1

Structure (SMILES): O=c1[nH]c2ccccc2n1C1CCN(CCCC(c2ccc(F)cc2)c2ccc(F)cc2)CC1 [Pimozide] + Cc1cc(Nc2cc(N3CCN(C)CC3)nc(Sc3ccc(NC(=O)C4CC4)cc3)n2)n[nH]1 [Tozasertib] (partner 0.1 µM)
- relative viability (NCI-H2087; first compound 0.08 µM): 0.262
- relative viability (NCI-H2087; first compound 0.253 µM): 0.232
- relative viability (NCI-H2087; first compound 2.53 µM): 0.233
- relative viability (NCI-H2087; first compound 8 µM): 0.195
- relative viability (NCI-H358; first compound 0.08 µM): 0.0997
- relative viability (NCI-H358; first compound 0.253 µM): 0.11
- relative viability (NCI-H358; first compound 0.8 µM): 0.112
- relative viability (NCI-H358; first compound 2.53 µM): 0.108
- relative viability (NCI-H358; first compound 8 µM): 0.106
- relative viability (201T; first compound 0.08 µM): 0.88
- relative viability (201T; first compound 0.253 µM): 0.94
- relative viability (201T; first compound 0.8 µM): 0.871
- relative viability (201T; first compound 2.53 µM): 0.747
- relative viability (201T; first compound 8 µM): 0.636
- relative viability (NCI-H1437; first compound 0.08 µM): 0.397
- relative viability (NCI-H1437; first compound 0.253 µM): 0.389
- relative viability (NCI-H1437; first compound 0.8 µM): 0.35
- relative viability (NCI-H1437; first compound 2.53 µM): 0.362
- relative viability (NCI-H1437; first compound 8 µM): 0.341
- relative viability (EPLC-272H; first compound 0.08 µM): 0.193
- relative viability (EPLC-272H; first compound 0.253 µM): 0.241
- relative viability (EPLC-272H; first compound 0.8 µM): 0.33
- relative viability (EPLC-272H; first compound 2.53 µM): 0.176
- relative viability (EPLC-272H; first compound 8 µM): 0.189
- relative viability (NCI-H647; first compound 0.08 µM): 0.24
- relative viability (NCI-H647; first compound 0.253 µM): 0.327
- relative viability (NCI-H647; first compound 0.8 µM): 0.264
- relative viability (NCI-H647; first compound 2.53 µM): 0.221
- relative viability (NCI-H647; first compound 8 µM): 0.214
- relative viability (COR-L23; first compound 0.08 µM): 0.194
- relative viability (COR-L23; first compound 0.253 µM): 0.183
- relative viability (COR-L23; first compound 0.8 µM): 0.191
- relative viability (COR-L23; first compound 2.53 µM): 0.153
- relative viability (COR-L23; first compound 8 µM): 0.185
- relative viability (HCC-15; first compound 0.08 µM): 0.403
- relative viability (HCC-15; first compound 0.253 µM): 0.365
- relative viability (HCC-15; first compound 0.8 µM): 0.322
- relative viability (HCC-15; first compound 2.53 µM): 0.292
- relative viability (HCC-15; first compound 8 µM): 0.201
- relative viability (ABC-1; first compound 0.08 µM): 0.213
- relative viability (ABC-1; first compound 0.253 µM): 0.214
- relative viability (ABC-1; first compound 0.8 µM): 0.184
- relative viability (ABC-1; first compound 2.53 µM): 0.178
- relative viability (ABC-1; first compound 8 µM): 0.203
- relative viability (NCI-H1975; first compound 0.08 µM): 0.766
- relative viability (NCI-H1975; first compound 0.253 µM): 0.67
- relative viability (NCI-H1975; first compound 0.8 µM): 0.717
- relative viability (NCI-H1975; first compound 2.53 µM): 0.618
- relative viability (NCI-H1975; first compound 8 µM): 0.714
- relative viability (HCC-827; first compound 0.253 µM): 0.387
- relative viability (HCC-827; first compound 0.8 µM): 0.368
- relative viability (HCC-827; first compound 2.53 µM): 0.385
- relative viability (HCC-827; first compound 8 µM): 0.405
